Like-named read-outs stand apart in the source and are kept apart here. Blank lines part the entries; values can stand above or below the molecule they belong to.
Columns and labels:
[1] = tested on: Myzus persicae (Green peach aphid); test: Myzus persicae test, roots of infested pea seedlings placed in test solution; type: in vivo; conditions: 144 h, read-out: control of Myzus persicae
Procedure: (§1) This Example illustrates the pesticidal/insecticidal properties of compounds of formula (I). The compounds numbers are those of the characterising data tables. Test against were performed as follows:
Myzus persicae (Green peach aphid): Roots of pea seedlings, infested with an aphid population of mixed ages, were placed directly in the test solutions of 24 ppm. 6 days after introduction, samples were checked for mortality.

[2] = tested on: Myzus persicae (Green peach aphid); test: Myzus persicae sunflower leaf disc spray test; type: in vivo; conditions: foliar, 144 h, read-out: control of Myzus persicae
Procedure: as §1
Heliothis virescens (Tobacco budworm): Eggs (0-24 h old) were placed in 24-well microtiter plate on artificial diet and treated with test solutions at an application rate of 200 ppm by pipetting. After an incubation period of 4 days, samples were checked for egg mortality, larval mortality, and growth regulation. The following compounds gave at least 80% control of Heliothis virescens: 1.004, 1.005, 1.012, 1.016, 4.001, 31.016, 31.018. Myzus persicae (Green peach aphid): Sunflower leaf discs were placed on agar in a 24-well microtiter plate and sprayed with test solutions at an application rate of 200 ppm. After drying, the leaf discs were infested with an aphid population of mixed ages. After an incubation period of 6 DAT, samples were checked for mortality.

[3] = roots of pea seedlings in test solutions of 24 ppm, mixed ages, mortality after 6 days
[4] = sunflower leaf discs sprayed at 200 ppm, mixed ages, mortality at 6 DAT

melting point: 115 to 118 °C
Compound: COc1ccc2c(c1)CCC2NC1=NCCO1 (stereo not drawn)

melting point: 109 to 113 °C
Compound: COc1cc2c(cc1OC)C(NC1=NCCO1)CC2 (stereo not drawn)

melting point: > 120 °C (dec.)
Compound: c1ccc(C2CC(NC3=NCCO3)c3ccccc32)cc1 (stereo not drawn)

Compound: O=C(NCCCl)NC1CCc2ccccc21 (racemic) [Compound 31.017]
pest or weed control at 24 ppm [1]: ≥ 80%
pest or weed control at 200 ppm [2]: ≥ 80%

melting point: 139 to 141 °C
Compound: OC1Cc2ccccc2C1NC1=NCCO1 (stereo not drawn) [1.013]

melting point: 140 to 142 °C
Compound: OC1Cc2ccccc2C1NC1=NCCO1 (stereo not drawn) [1.014]

Compound: CC1Cc2ccccc2C1NC1=NCCO1 (stereo not drawn) [Compound 1.001]
pest or weed control at 24 ppm [1, 3]: ≥ 80%

Compound: CC1CC(NC2=NCCO2)c2ccccc21 (stereo not drawn) [Compound 1.002]
pest or weed control at 24 ppm [1, 3]: ≥ 80%
pest or weed control at 200 ppm [2, 4]: ≥ 80%

Compound: Cc1cccc2c1CCC2NC1=NCCO1 (stereo not drawn) [Compound 1.004]
pest or weed control at 24 ppm [1, 3]: ≥ 80%
pest or weed control at 200 ppm [2, 4]: ≥ 80%

Compound: Fc1ccc2c(c1)CCC2NC1=NCCO1 (stereo not drawn) [Compound 1.005]
pest or weed control at 200 ppm [2, 4]: ≥ 80%

Compound: Brc1ccc2c(c1)CCC2NC1=NCCO1 (stereo not drawn) [Compound 1.006]
pest or weed control at 200 ppm [2, 4]: ≥ 80%

Compound: Clc1ccc2c(c1)CCC2NC1=NCCO1 (stereo not drawn) [Compound 1.007]
pest or weed control at 200 ppm [2, 4]: ≥ 80%

Compound: COc1ccc2c(c1)C(NC1=NCCO1)CC2 (stereo not drawn) [Compound 1.009]
pest or weed control at 200 ppm [2, 4]: ≥ 80%

Compound: Cc1ccc2c(c1)CCC2NC1=NCCO1 (stereo not drawn) [Compound 1.010]
pest or weed control at 24 ppm [1, 3]: ≥ 80%
pest or weed control at 200 ppm [2, 4]: ≥ 80%

Compound: Cc1ccc2c(c1)C(NC1=NCCO1)CC2 (stereo not drawn) [Compound 1.012, (4,5-Dihydro-oxazol-2-yl)-(6-methyl-indan-1-yl)-amine]
pest or weed control at 24 ppm [1, 3]: ≥ 80%
pest or weed control at 200 ppm [2, 4]: ≥ 80%

Compound: CC1Cc2ccccc2C1NC1=NCCO1 (stereo not drawn) [Compound 1.015]
pest or weed control at 200 ppm [2, 4]: ≥ 80%

Compound: Fc1cccc2c1CCC2NC1=NCCO1 (stereo not drawn) [Compound 1.016]
pest or weed control at 24 ppm [1, 3]: ≥ 80%
pest or weed control at 200 ppm [2, 4]: ≥ 80%

Compound: c1ccc2c(c1)CCC2NC1=NCCO1 (stereo not drawn) [Compound 1.017]
pest or weed control at 24 ppm [1, 3]: ≥ 80%
pest or weed control at 200 ppm [2, 4]: ≥ 80%

Compound: CC1Cc2ccccc2C1NC(=O)NCCCl (stereo not drawn) [Compound 31.001]
pest or weed control at 24 ppm [1]: ≥ 80%
pest or weed control at 200 ppm [2]: ≥ 80%

Compound: CC1CC(NC(=O)NCCCl)c2ccccc21 (stereo not drawn) [Compound 31.002]
pest or weed control at 24 ppm [1]: ≥ 80%
pest or weed control at 200 ppm [2]: ≥ 80%

Compound: O=C(NCCCl)NC1CCc2c(F)cccc21 (stereo not drawn) [Compound 31.016]
pest or weed control at 24 ppm [1]: ≥ 80%
pest or weed control at 200 ppm [2]: ≥ 80%

Compound: O=C(NCCCl)NC1CCc2ccccc21 (stereo not drawn) [Compound 31.018]
pest or weed control at 24 ppm [1]: ≥ 80%
pest or weed control at 200 ppm [2]: ≥ 80%

From US20100280085A1, “CHEMICAL COMPOUNDS” (SYNGENTA CROP PROTECTION, INC., priority 2006, published 2010)
